Test results taken from article PMC5535168 (Toxins, 2017).
Values joined by “and” are separate entries in the source; they are usually repeats but may differ in a detail not shown here. Equal values may be shown once. Read-outs that look alike come from different tables or passages of the source. Where a SMILES comes first, the peptide text is derived from it. Where no end group is shown, it is not given here. The star is where a group is joined. Biotin = O=C1N[C@H]2[C@H](CS[C@H]2CCCCC(=O)*)N1

Legend:
[1] = system: mAb AVR1675; format: binding, mouse
[2] = system: AVR1675 mAb; format: binding, mouse
[3] = target: AVR1675 (LFG2 3F3:3D10 IgG1 kappa) (mouse); assay: ELISA
AVR1675 (LFG2 3F3:3D10 IgG1 kappa) (mouse), sequence (heavy, as listed by the source): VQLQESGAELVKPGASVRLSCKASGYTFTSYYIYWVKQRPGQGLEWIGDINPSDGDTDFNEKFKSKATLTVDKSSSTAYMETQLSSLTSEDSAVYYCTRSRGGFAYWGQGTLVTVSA

Molecule: CC[C@H](C)[C@H](NC(=O)[C@H](CCC(=O)O)NC(=O)[C@H](CC(=O)O)NC(=O)[C@H](CCC(N)=O)NC(=O)[C@H](Cc1c[nH]cn1)NC(=O)[C@@H](N)[C@@H](C)O)C(=O)N[C@@H](Cc1ccc(O)cc1)C(=O)N[C@@H](CCC(=O)O)C(=O)N[C@@H](CCC(N)=O)C(=O)N[C@@H](CCCCNC(=O)CCCC[C@@H]1SC[C@@H]2NC(=O)N[C@@H]21)C(=O)O [Native LF core sequence] (H-THQDEIYEQK(Biotin)-OH)
- % R of Consensus [1]: 14%
- Response (nm) [1]: 0.7024 nm
- Kd ([1]; read-out: KD (M) *): > 1e-07 M

Molecule: CC[C@H](C)[C@H](NC(=O)[C@H](CC(N)=O)NC(=O)[C@@H]1CCCN1)C(=O)N[C@@H](C)C(=O)N[C@@H](CCC(=O)O)C(=O)N[C@@H](CCC(N)=O)C(=O)N[C@@H](Cc1ccc(O)cc1)C(=O)N[C@H](C(=O)N[C@@H](Cc1c[nH]cn1)C(=O)N[C@@H](CCC(N)=O)C(=O)N[C@@H](CC(=O)O)C(=O)N[C@@H](CCC(=O)O)C(=O)N[C@H](C(=O)N[C@@H](Cc1ccc(O)cc1)C(=O)N[C@@H](CCC(=O)O)C(=O)N[C@@H](CCC(N)=O)C(=O)N[C@H](C(=O)N[C@@H](Cc1c[nH]cn1)C(=O)N[C@@H](CO)C(=O)N[C@@H](CCCCN)C(=O)NCC(=O)N[C@@H](CC(C)C)C(=O)N[C@@H](Cc1ccc(O)cc1)C(=O)N[C@H](C(=O)N1CCC[C@H]1C(=O)N[C@@H](CCC(=O)O)C(=O)N[C@@H](CO)C(=O)N[C@@H](CCCNC(=N)N)C(=O)NCC(=O)NCC(=O)NCC(=O)N[C@@H](CO)C(=O)N[C@@H](CCCCNC(=O)CCCC[C@@H]1SC[C@@H]2NC(=O)N[C@@H]21)C(=O)O)C(C)C)C(C)C)[C@@H](C)CC)[C@@H](C)O [Native LF extended sequence]
- % R of Consensus [1]: 14%
- Response (nm) [1]: 0.7024 nm
- Kd ([1]; read-out: KD (M) *): > 1e-07 M

Molecule: TVRD EP L [φE12]
- Phage ELISA Reactivity (class) [2]: High (OD 1.70) (key: High = OD > 1.0; Intermediate = OD 0.5–1.0; Low = OD < 0.5)

Molecule: CC[C@H](C)[C@H](NC(=O)[C@H](CCC(=O)O)NC(=O)[C@H](CC(=O)O)NC(=O)[C@H](CCCCN)NC(=O)[C@H](Cc1ccccc1)NC(=O)[C@@H](N)[C@@H](C)O)C(=O)NCC(=O)NCC(=O)NCC(=O)N[C@@H](CO)C(=O)N[C@@H](CCCCNC(=O)CCCC[C@@H]1SC[C@@H]2NC(=O)N[C@@H]21)C(=O)O [φC8-derived Reference Sequence] (H-TFKDEIGGGSK(Biotin)-OH; N-terminus and C-terminus assumed)
- % R of Consensus [1]: 100%
- Binding relative to the LF-sequence derived oligopeptides [1]: seven-fold higher binding
- R (binding response, running text) [1]: 4.84 nm
- Response (nm) [1]: 4.8387 nm
- Kd ([1]; read-out: KD (M) *): 1.39e-08 M
- Kd ([1]; read-out: KD (equilibrium affinity constant)): 9.97e-09 M

Molecule: TVRD D Q I [φD7]
- Phage ELISA Reactivity (class) [2]: High (OD 1.78) (key: High = OD > 1.0; Intermediate = OD 0.5–1.0; Low = OD < 0.5)

Molecule: TFKDDIHGGGS (not fully specified) [phage-displayed peptide T-F-K-D-D-I-H (phage clone φC9)]
- OD (phage ELISA reactivity) [3]: 1.33 OD

Molecule: TYKDDIRGGGS (not fully specified) [phage-displayed peptide T-Y-K-D-D-I-R (phage clones φB5 and φD2)]
- OD (phage ELISA reactivity) [3]: 1.65 OD and 1.78 OD

Molecule: TFKDDLFGGGS (not fully specified) [phage-displayed peptide T-F-K-D-D-L-F (phage clone φC7)]
- OD (phage ELISA reactivity) [3]: 1.56 OD

Molecule: TFKDDGYGGGS (not fully specified) [phage-displayed peptide T-F-K-D-D-G-Y (phage clone φD4)]
- OD (phage ELISA reactivity) [3]: 0.08 OD

Molecule: TYLDDLYGGGS (not fully specified) [phage-displayed peptide T-Y-L-D-D-L-Y (phage clones φB6 and φD11)]
- OD (phage ELISA reactivity) [3]: 1.77 OD and 1.7 OD

Molecule: TFLDDAPGGGS (not fully specified) [phage-displayed peptide T-F-L-D-D-A-P (phage clone φE2)]
- OD (phage ELISA reactivity) [3]: 1.22 OD

Molecule: TWRDDIPGGGS (not fully specified) [phage-displayed peptide T-W-R-D-D-I-P (phage clone φD8)]
- OD (phage ELISA reactivity) [3]: 0.79 OD

Molecule: TYRDDPPGGGS (not fully specified) [phage-displayed peptide T-Y-R-D-D-P-P (phage clone φE5)]
- OD (phage ELISA reactivity) [3]: 1.55 OD

Molecule: TVLDDVAGGGS (not fully specified) [phage-displayed peptide T-V-L-D-D-V-A (phage clone φC2)]
- OD (phage ELISA reactivity) [3]: 0.36 OD

Molecule: TVRDDQIGGGS (not fully specified) [phage-displayed peptide T-V-R-D-D-Q-I (phage clone φD7)]
- OD (phage ELISA reactivity) [3]: 1.78 OD

Molecule: TFRDEPMGGGS (not fully specified) [phage-displayed peptide T-F-R-D-E-P-M (phage clone φB9)]
- OD (phage ELISA reactivity) [3]: 1.71 OD

Molecule: TVRDEPLGGGS (not fully specified) [phage-displayed peptide T-V-R-D-E-P-L (phage clone φE12)]
- OD (phage ELISA reactivity) [3]: 1.7 OD
